Data published in US8022228B2, “Crystal form of asenapine maleate” (N.V. Organon, priority 2005, dated 2011).
Counter-ions that a name gives are not always drawn.

Experiments:
[1] = Particle size distribution by laser diffraction (LDS method); assay type: physicochemical; settings: for D95 of micronization sample: after micronization, Chrispro MC200 jet mill, nitrogen, 7 bar; for D95 of crystallization sample: LDS
Experimental: LDS method. A dispersion liquid has been made consisting of (0.7 mg/ml) lecithin (used as a surfactant) in iso-octane saturated with asenapine maleate. The solution is stirred overnight. Subsequently the solution is filtered over a 0.22 μm filter. The samples were prepared by weighing approximately 30 mg asenapine maleate in a centrifugal tube and adding 2 ml of the dispersion liquid. Ultrasonic treatment of the samples was performed for 2 minutes in an ultrasonic bath (Transsonic 310). Subsequently, the particle size distribution of the sample was analyzed using laser diffraction (Malvern Mastersizer S, UK). The particle size distribution has been calculated using the Fraunhofer algorithm.

[2] = Micronization in jet mill, polymorphic form of the product by XRPD; assay type: physicochemical; settings: polymorphic form after micronization at 7 bar
Experimental: X-ray powder diffraction (XRPD) spectra were obtained on an […] Panalytical Reflection diffractometer in a Bragg-Brantano setup, Cu-Kα radiation, settings 45 kV and 40 mA together with an X'celerator detector. The slits used: anti-scatter slit 1°, divergence slit 1⁄2°, soller slits 0.02 rad. Measuring conditions: scan range 5-40°2-[…] (θ), step size 0.0167°2-[…]. The samples were measured on a rotating sample disk of Si with a speed of 15 rpm.

[3] = known crystalline form, Funke et al.; cited from earlier work
[4] = Particle size observed in micrographs / microscopic picture; assay type: physicochemical; settings: non-micronized crystallized batch

## CN1CC2c3ccccc3Oc3ccc(Cl)cc3C2C1 (centres unmarked) [batch M5, asenapine maleate]
[1]; listed as M5
  D95 of micronization sample: <6 μm
[2]; listed as M5
  polymorph of micronization sample: >95% orthorhombic

## CN1CC2c3ccccc3Oc3ccc(Cl)cc3C2C1 (centres unmarked) [batch M2, asenapine maleate]
[1]; listed as M2
  D95 of micronization sample: <14 μm
[2]; listed as M2
  polymorph of micronization sample: >95% monoclinic

## CN1CC2c3ccccc3Oc3ccc(Cl)cc3C2C1 (centres unmarked) [batch C1, asenapine maleate]
[1]; non-micronized crystallized batch, listed as C1
  D95 of crystallization sample: 199 μm

## CN1CC2c3ccccc3Oc3ccc(Cl)cc3C2C1 (centres unmarked) [batch M1, asenapine maleate]
[1]; listed as M1
  D95 of micronization sample: <12 μm
[2]; listed as M1
  polymorph of micronization sample: >95% orthorhombic

## CN1CC2c3ccccc3Oc3ccc(Cl)cc3C2C1 (centres unmarked) [batch M4, asenapine maleate]
[1]; listed as M4
  D95 of micronization sample: <9 μm
[2]; listed as M4
  polymorph of micronization sample: >95% orthorhombic

## CN1CC2c3ccccc3Oc3ccc(Cl)cc3C2C1.O=C(O)/C=C\C(=O)O (centres unmarked) [asenapine maleate]
[3]
  size of crystalline particles as observed in micrographs: over 100 μm

## CN1CC2c3ccccc3Oc3ccc(Cl)cc3C2C1 (centres unmarked) [batch M6, asenapine maleate]
[1]; listed as M6
  D95 of micronization sample: <10 μm
[2]; listed as M6
  polymorph of micronization sample: >95% orthorhombic

## CN1CC2c3ccccc3Oc3ccc(Cl)cc3C2C1 (centres unmarked) [batch C2, asenapine maleate]
[1]; non-micronized crystallized batch, listed as C2
  D95 of crystallization sample: 221 μm

## CN1CC2c3ccccc3Oc3ccc(Cl)cc3C2C1 (centres unmarked) [batch C5, asenapine maleate]
[4]
  particle size in microscopic picture: up to 100 μm
[1]; non-micronized crystallized batch
  average particle size by LDS: ~30 μm
[1]; non-micronized crystallized batch, listed as C5
  D95 of crystallization sample: 30-100 μm

## CN1CC2c3ccccc3Oc3ccc(Cl)cc3C2C1 (centres unmarked) [batch M3, asenapine maleate]
[1]; listed as M3
  D95 of micronization sample: <16 μm
[2]; listed as M3
  polymorph of micronization sample: 80% orthorhombic, 20%

## CN1CC2c3ccccc3Oc3ccc(Cl)cc3C2C1 (centres unmarked) [batch M7, asenapine maleate]
[1]; listed as M7
  D95 of micronization sample: <12 μm
[2]; listed as M7
  polymorph of micronization sample: >95% orthorhombic
